PMC8746705, “Comparison of Experimental Strategies to Study L-Type Amino Acid Transporter 1 (LAT1) Utilization by Ligands” (Molecules, 2021)

Assays:
Transport Type 2 = experiment: Concentration-dependent cellular uptake into BV2 cells, Eadie–Hofstee analysis, Transport Type 2; type: cell-based, mouse; conditions: 1–200 µM, 30 min, mean ± SD, n = 3
Experimental: For the concentration-dependent cellular uptake experiments, the BV2 cells on 24-well plates were incubated with studied compounds (1–200 μM) in pre-warmed HBSS buffer (250 μL) at 37 °C for 30 min. The experiment was then carried out as described for the time-dependent uptake above and the concentration of studied compounds in the cell lysate was analyzed by the LC-MS/MS methods described above and the results were normalized to the total protein concentration. The distinct transport mechanisms were separated from the Michaelis-Menten kinetics by using Eadie–Hofstee plot.
The studied compounds (1–15) were analyzed by using Agilent 1200 Series Rapid Resolution LC System together with an Agilent 6410 Triple Quadrupole Mass Spectrometer equipped with an electrospray ionization source (Agilent Technologies, Santa Clara, CA, USA). The chromatographic separations of analytes were achieved by using a reversed-phase Zobrax SB-C18 column (50 mm × 2.1 mm, 1.8 μm; Agilent Technologies, Santa Clara, CA, USA) by eluting the samples with 0.1% formic acid in water (A) and 0.1% formic in ACN (B). Labetalol and diclofenac were used as internal standards (ISTD) for the prodrugs and parent drugs, respectively. The transitions used for the quantification at the positive ion mode and chromatographic conditions of each compound and their parent drugs are listed in Table S1. The methods of compounds 1–11 have been reported earlier, while the methods of compounds 12–15 are reported herein for the first time.

LAT1 [1] = molecular target: T1, LAT1 (Mus musculus, UniProt Q9Z127); experiment: Inhibition type of [14C]-L-Leu uptake (Hanes-Woolf plots) in BV2 cells; type: cell-based; conditions: for Vmax of [14C]-L-Leu uptake: 0.010–0.20 µM [14C]-L-Leu in the presence of the compound at its IC50, mean ± SD, n = 3–4; for Vmax of [14C]-L-Leu uptake / Inhibition Type: BV2; for IC50: Table 2, compound concentration used in the inhibition type study, corresponding to IC50 of [14C]-L-Leu uptake; for Inhibition Type: of [14C]-L-Leu uptake, concluded from Km and Vmax
T1 sequence (Q9Z127 whole entry): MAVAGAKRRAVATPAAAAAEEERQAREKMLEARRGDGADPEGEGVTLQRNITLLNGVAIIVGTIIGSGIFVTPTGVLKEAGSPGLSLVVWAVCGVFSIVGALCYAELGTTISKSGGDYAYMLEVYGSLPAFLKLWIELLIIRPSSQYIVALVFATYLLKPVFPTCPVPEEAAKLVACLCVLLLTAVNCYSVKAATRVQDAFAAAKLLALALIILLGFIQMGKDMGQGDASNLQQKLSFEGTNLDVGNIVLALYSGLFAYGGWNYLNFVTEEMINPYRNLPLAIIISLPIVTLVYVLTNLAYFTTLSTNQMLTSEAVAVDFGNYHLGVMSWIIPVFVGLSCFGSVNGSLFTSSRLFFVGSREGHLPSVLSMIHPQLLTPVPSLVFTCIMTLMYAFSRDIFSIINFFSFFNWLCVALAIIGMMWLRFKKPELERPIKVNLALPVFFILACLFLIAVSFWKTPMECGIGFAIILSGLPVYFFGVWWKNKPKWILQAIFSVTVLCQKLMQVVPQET
T1 sequence (P10852 whole entry partner): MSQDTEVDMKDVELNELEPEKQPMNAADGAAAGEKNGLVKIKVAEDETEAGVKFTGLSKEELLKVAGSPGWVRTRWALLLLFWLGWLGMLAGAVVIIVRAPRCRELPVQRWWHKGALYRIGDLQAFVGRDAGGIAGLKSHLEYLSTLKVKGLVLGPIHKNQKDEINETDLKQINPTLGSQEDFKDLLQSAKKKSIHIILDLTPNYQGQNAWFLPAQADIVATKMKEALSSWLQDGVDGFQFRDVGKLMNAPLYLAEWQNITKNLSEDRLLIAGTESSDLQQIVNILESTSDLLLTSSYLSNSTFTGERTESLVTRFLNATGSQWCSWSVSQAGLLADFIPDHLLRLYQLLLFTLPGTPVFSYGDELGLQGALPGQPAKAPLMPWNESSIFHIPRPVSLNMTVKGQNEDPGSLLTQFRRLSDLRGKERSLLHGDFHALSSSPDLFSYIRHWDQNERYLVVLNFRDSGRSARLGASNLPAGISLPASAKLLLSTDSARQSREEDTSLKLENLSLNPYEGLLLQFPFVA
Outline: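 BV2 cells preincubated 10 min at 37 °C in Na+-free choline HBSS (pH 7.4), then exposed to 0.010–0.20 μM [14C]-L-leucine plus compound at IC50-guided concentration; uptake counted by liquid scintillation. Km and Vmax derived by linear regression of Hanes-Woolf plots ([S]/v vs substrate).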

LAT1 [2] = molecular target: T1, LAT1; experiment: Cellular uptake of compounds in the presence of LAT1-inhibitor (KMH-233); type: cell-based; conditions: 100 µM compound, 100 µM KMH-233, 30 min, BV2
Outline: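 Cells were pre-exposed 10 min to 100 µM KMH-233, then incubated 30 min in HBSS with 100 µM compound plus inhibitor. Intracellular compound was quantified by LC-MS against a spiked standard curve and normalised to protein.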

LAT1 [3] = molecular target: T1, LAT1; experiment: Cis-inhibition of radiolabelled LAT1-probe substrate uptake into BV2 cells; type: cell-based; conditions: for IC50: 5 min, mean ± SD; for Inhibition of LAT1-probe substrate uptake / LAT1 affinity: over all probe substrates
Outline: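 Mouse BV2 cells preincubated 10 min at 37 °C in choline-based HBSS pH 7.4, then 5 min uptake of [14C]-L-leucine (0.2 µCi/mL) or [3H]-methionine, -tryptophan or -kynurenine (2 µCi/mL) with 0.1–1000 μM compound. Cell radioactivity counted by liquid scintillation after lysis. IC50 by nonlinear regression.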

[4] = tested on: immortalized mouse microglia (BV2); experiment: Time-dependent cellular uptake of compounds into BV2 cells (LC-MS/MS); type: cell-based; conditions: for Max. cellular uptake: 100 µM compound, 1–60 min, mean ± SD, n = 3
Outline: (§1)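 BV2 cells were incubated with 100 μM compound in HBSS at 37 °C for 1–60 min, washed ice-cold and lysed in 0.1 M NaOH. Intracellular compound was quantified by positive-mode ESI LC-MS/MS against internal-standard calibration curves and normalised to Bradford protein content.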

[5] = as above; type: cell-based, mouse; conditions: mouse, BV2 microglia cells, 100 µM compound, 1–60 min, mean ± SD, n = 3, read-out: T½ of cellular uptake
Outline: as §1

[6] = probe [3H]-L-Kynu, n = 3–4, read-out: IC50 of [3H]-L-Kynu uptake
[7] = probe [3H]-L-Met, n = 3–4, read-out: IC50 of [3H]-L-Met uptake
[8] = probe [3H]-L-Trp, n = 3–4, read-out: IC50 of [3H]-L-Trp uptake
[9] = probe [14C]-L-Leu, n = 3–4, read-out: IC50 of [14C]-L-Leu uptake

Compound	Vmax of [14C]-L-Leu uptake (LAT1 [1])	IC50 (LAT1 [1])	Inhibition Type (LAT1 [1])	Cellular uptake in the presence of LAT1-inhibitor (LAT1 [2])	IC50 (LAT1 [3]; [6])	IC50 (LAT1 [3]; [7])	IC50 (LAT1 [3]; [8])	IC50 (LAT1 [3]; [9])	half-life at 100 μM [5]	Km (Transport Type 2)	Transport Type 2 Vmax (Transport Type 2)	Max. cellular uptake [4]	Inhibition of LAT1-probe substrate uptake / LAT1 affinity (LAT1 [3])	LAT1-substrate or LAT1-binder ([4]; concluded from time-dependent uptake, 100 µM)
COc1cc(/C=C/C(=O)Oc2cccc(C[C@H](N)C(=O)O)c2)ccc1O [Compound 7]	2.780 ± 0.126 nmol/min/mg	38 µM	Mixed type	inhibited significantly	96.8 ± 1.2 µM	13.6 ± 1.8 µM	19.8 ± 1.3 µM	37.6 ± 1.8 µM	7.35 ± 3.44 min	62 ± 14 µM	0.21 ± 0.02 pmol/mg/min	21.14 ± 2.93 nmol/mg of protein	–	–
N[C@@H](Cc1cccc(NC(=O)c2ccccc2O)c1)C(=O)O [Compound 8]	1.644 ± 0.073 nmol/min/mg	19 µM	Un-competitive	inhibited significantly	18.1 ± 1.2 µM	12 ± 1.4 µM	24.5 ± 2 µM	–	2.65 ± 0.6 min	41 ± 5 µM	185 ± 10 pmol/mg/min	8.05 ± 0.40 nmol/mg of protein	not able to inhibit the LAT1-probe substrate uptake very effectively	–
C[C@H](C(=O)Oc1cccc(C[C@H](N)C(=O)O)c1)c1cccc(C(=O)c2ccccc2)c1 [Compound 4]	1.599 ± 0.170 nmol/min/mg	15 µM	Non-competitive	inhibited significantly	35.3 ± 1.2 µM	26.1 ± 1.4 µM	38.8 ± 3.1 µM	15 ± 1.3 µM	1.86 ± 0.42 min	159 ± 45 µM	231 ± 40 pmol/mg/min	4.17 ± 0.19 nmol/mg of protein	–	–
COc1cc(C=CC(=O)NCc2cccc(CC(N)C(=O)O)c2)ccc1O (stereo not shown) [Compound 5]	1.910 ± 0.057 nmol/min/mg	–	Un-competitive	only reductive trends were seen	43.3 ± 1.1 µM	> 100 µM	> 100 µM	> 100 µM	< 1 min	77 ± 13 µM	0.27 ± 0.02 pmol/mg/min	cannot be calculated	not able to inhibit the LAT1-probe substrate uptake very effectively	LAT1-binders rather than substrates

Stronger by IC50 (LAT1 [3]; [6]), values ahead:

Vmax of [14C]-L-Leu uptake (LAT1 [1])	IC50 (LAT1 [1])	Inhibition Type (LAT1 [1])	Cellular uptake in the presence of LAT1-inhibitor (LAT1 [2])	IC50 (LAT1 [3]; [6])	IC50 (LAT1 [3]; [7])	IC50 (LAT1 [3]; [8])	IC50 (LAT1 [3]; [9])	half-life at 100 μM [5]	Compound	Km (Transport Type 2)	Transport Type 2 Vmax (Transport Type 2)	Max. cellular uptake [4]	Inhibition of LAT1-probe substrate uptake / LAT1 affinity (LAT1 [3])	LAT1-substrate or LAT1-binder ([4]; concluded from time-dependent uptake, 100 µM)
1.792 ± 0.106 nmol/min/mg	7 µM	Mixed type	inhibited significantly	0.7 ± 0.1 µM	8.2 ± 1.7 µM	6.7 ± 1.6 µM	6.8 ± 1.4 µM	9.11 ± 1.52 min	NC(Cc1cccc(C(=O)Oc2ccc(-c3ccc(-c4ccc5c(c4)COC5=O)s3)cc2)c1)C(=O)O (stereo not shown) [Compound 1]	347 ± 26 µM	5067 ± 327 pmol/mg/min	176.0 ± 9.0 nmol/mg of protein	–	–
2.759 ± 0.066 nmol/min/mg	3 µM	Mixed type	inhibited significantly	4.3 ± 1.3 µM	3.3 ± 1.5 µM	9.9 ± 1.3 µM	2.8 ± 1.5 µM	1.97 ± 0.66 min	C[C@H](C(=O)Nc1cccc(C[C@H](N)C(=O)O)c1)c1cccc(C(=O)c2ccccc2)c1 [Compound 2]	199 ± 50 µM	0.88 ± 0.16 pmol/mg/min	22.31 ± 1.34 nmol/mg of protein	–	–
2.422 ± 0.061 nmol/min/mg	6 µM	Non-competitive	inhibited significantly	4.7 ± 1.2 µM	1.7 ± 1.8 µM	15.9 ± 7.8 µM	–	> 300 min	C[C@H](C(=O)Nc1cccc(C[C@H](N)C(=O)O)c1)c1ccc(-c2ccccc2)c(F)c1 [Compound 9]	–	–	101.6 ± 86.1 nmol/mg of protein	–	–
1.448 ± 0.099 nmol/min/mg	10 µM	Non-competitive	inhibited significantly	3.1 ± 1.3 µM	25.3 ± 1.6 µM	11.1 ± 1.2 µM	–	12.5 ± 3.62 min	COc1ccc2cc([C@H](C)C(=O)Oc3cccc(C[C@H](N)C(=O)O)c3)ccc2c1 [Compound 15]	–	–	29.09 ± 2.84 nmol/mg of protein	–	–
1.513 ± 0.218 nmol/min/mg	4 µM	Mixed type	inhibited significantly	3 ± 1.5 µM	4.3 ± 1.7 µM	6.3 ± 1.3 µM	–	19.2 ± 5.71 min	C[C@H](C(=O)Oc1cccc(C[C@H](N)C(=O)O)c1)c1ccc(-c2ccccc2)c(F)c1 [Compound 12]	–	–	36.12 ± 4.17 nmol/mg of protein	–	–
